In brackets after ≈: the same amount, converted by molar mass. Where two headings read alike, the source gives them in different places.
How the values were obtained:
[1] = parameters: method as in PMID 13489662; conditions: 2 weeks or more of DON therapy; cited from earlier work
hematologic malignancies = system: hematologic malignancies; parameters: method as in PMID 13918321; conditions: DON combination with standard 6-mercaptopurine (6-MP) therapy; cited from earlier work
in vitro [2] = conditions: CES1–/–, mouse, plasma
Method: (§2) Briefly, intestinal tissue was homogenized over ice via probe sonication with 1:9 tissue to potassium phosphate buffer (0.1 M) conditions. Prodrugs were spiked in plasma or tissue homogenate at 10 μM final concentration with 0.2% DMSO v/v and incubated in triplicate for 0 and 60 min time points. At each time point, 100 μL of the sample was precipitated with 300 μL of methanol containing internal standard (IS; losartan, 0.5 μM). Precipitated samples were vortexed (30 s) and centrifuged at 10000g for 10 min at 4 °C. After centrifugation, 100 μL of supernatant was aliquoted and submitted for analysis. Prodrug disappearance over time was monitored by liquid chromatography–mass spectrometry (LC–MS) through peak area ratios between the analyte and internal standard.
(§3) Chromatographic analysis was performed on a Dionex ultra-high-performance LC system coupled with a Q Exactive Focus Orbitrap mass spectrometer (Thermo Fisher Scientific Inc., Waltham, MA). Separation was achieved using an Agilent Eclipse Plus column (100 × 2.1 mm i.d.; maintained at 35 °C) packed with a 1.8 μm C18 stationary phase. The mobile phase used was composed of 0.1% formic acid in acetonitrile and 0.1% formic acid in water with gradient elution, starting with 2.5% organic phase (from 0 to 0.25 min) and linearly increasing to 99% (from 0.25 to 1.25 min) and re-equilibrating to 2.5% by 4 min. The total run time for each analyte was 5 min. Pumps were operated at a flow rate of 0.4 mL/min. The mass spectrometer controlled by Xcalibur software 4.0.27.13 (Thermo Scientific) was operated with an HESI ion source in positive ionization mode for all compounds. Compounds were identified in the full-scan mode with m/z ranging from 75 to 1125.

in vitro [3] = conditions: CES1–/–, mouse, tissue homogenate
Method: as §2, §3

[4] = CES1–/–, mouse, 1 h, 10 μM
Method: as §2, §3

[5] = CES1–/–, mouse, 1 h, 10 μM; remark: listed apart in the source
Method: as §2, §3

[6] = Aqueous solubility assay in PBS buffer (pH 7.4); format: physicochemical; conditions: PBS buffer pH 7.4; 37 °C; 1 h
Method: (§1) The aqueous solubility was determined as previously reported with minor modifications.[48] Briefly, an excess amount of P11 or DRP-104 was added to PBS buffer (pH 7.4) and sonicated for 1 h at 37 °C to ensure saturation. After 1 h, the solution was filtered (0.45 μm PTFE), and the filtrate was diluted appropriately, and the concentration of each analyte was determined via LC–MS. Chemical stabilities of DRP-104 and P11 were done as previously described[18] with modifications. For chemical stability, prodrugs were spiked (10 μM) in buffer at pH 7.4 and incubated at 37 °C for 24 h. Prodrug disappearance was monitored using the developed HRMS methods.

P493B lymphoma cells = experiment: Cell viability assay; format: cell-based; conditions: Homo sapiens, 72 h, 72 h incubation
Method: Cell proliferation assays were performed as we have previously described.[19] Briefly, P493B lymphoma cells were plated in 96-well plates at a density of 20 000 cells/well in a final volume of 100 μL of growth media. P11, or DRP-104, was added to cells in half-log serial dilutions with a final concentration of 0.2% DMSO. Cells were allowed to proliferate for 72 h, and thereafter, 20 μL of CellTiter 96 AQueous (Promega no. 3580) was added per well and incubated for 2 h. Absorbance was measured at 490 nm. Relative cell viability was calculated from the difference between untreated cell wells (100%) and media well without cells (0%).

[7] = Metabolic stability in mouse plasma
Method: as §2, §3

[8] = system: P493B lymphoma cells suspended in human plasma; experiment: Human tumor cell to plasma partitioning assay; format: cell-based; conditions: 20 μM; 1 h; human plasma fraction
Method: Human tumor cell to plasma partitioning assays were conducted as we have previously described.[25] Briefly, P493B lymphoma cells were grown at 37 °C, in a humidified atmosphere with 5% CO2. Cell confluency was estimated, and cells were harvested after achieving >80% confluency and centrifuged at 200g for 5 min at 25 °C. The obtained cell pellet was resuspended in 20 mL of Dulbecco’s phosphate-buffered saline (DPBS; Gibco, USA, cat. no. 14-190-144) maintained at 37 °C, and cell count was determined using an automated cell counter (Bio-Rad, USA). Cell suspension in DPBS was further centrifuged at 200g for 5 min at 25 °C, and the cell pellet was resuspended in human plasma (Innovative Research, USA) for partitioning assessment. The final cell density after resuspending in plasma was 10 million cells/mL of plasma. Partitioning assessment was performed in triplicate. Preincubated (37 °C for 5 min) cell–plasma suspension was spiked with DRP-104 or P11 at a final concentration of 20 μM and incubated at 37 °C for 1 h. Following incubation, a 1 mL aliquot of cell–plasma suspension was centrifuged at 1000g for 5 min at 4 °C, and supernatant plasma as well as the cell pellet was collected and stored at −80 °C until bioanalysis. Both plasma and cell pellet fractions were analyzed for intact prodrug and DON levels. […]

[9] = Metabolic stability in mouse intestinal homogenate (GIh)
Method: as §2, §3

[10] = parameters: method as in PMID 36383674; conditions: cited from earlier work
[11] = Chemical (aqueous) stability in buffer pH 7.4; format: physicochemical; conditions: 10 μM, pH 7.4 PBS, 37 °C, 24 h, HRMS/LCMS
Method: as §1

[12] = parameters: method as in printed; conditions: background statement; ref not given; cited from earlier work
[13] = supplementary CSV, unit not given, matches Table 1 % remaining at 1 h, in %

[N-]=[N+]=CC(=O)CC[C@H](N)C(=O)O [DON, 6-Diazo-5-oxo-L-norleucine]
patients with disease stability or regression [1]: 66%
patients with complete bone marrow remissions (hematologic malignancies): 42%

CC(C)(C)OC(=O)[C@H](CCC(=O)C=[N+]=[N-])NC(=O)[C@H](Cc1c[nH]c2ccccc12)NC(=O)C12CCN(CC1)CC2 [Prodrug P8, tert-Butyl (S)-2-((S)-3-(1H-Indol-3-yl)-2-(quinuclidine-4-carboxamido)propanamido)-6-diazo-5-oxohexanoate]
remaining at 1 h, 10 µM (in vitro [2]): 106 ± 2%
remaining at 1 h, 10 µM (in vitro [3]): 71%
Intestinal homogenate [4]: 71 ± 0
Plasma [5]: 106 ± 2

CC(=O)N[C@@H](Cc1c[nH]c2ccccc12)C(=O)N[C@@H](CCC(=O)C=[N+]=[N-])C(=O)OC(C)C [DRP-104, isopropyl (S)-2-((S)-2-acetamido-3-(1H-indol-3-yl)-propanamido)-6-diazo-5-oxo-hexanoate, reference compound]
solubility at 1 h [6]: 240 ± 30 µg/mL (≈ 544 µM)
EC50 (P493B lymphoma cells): ~1 µM
remaining at 1 h, 10 µM ([7]; CES1–/–, mouse, plasma): 94 ± 1%
Plasma [7, 13]: 94 ± 1
stability and DON release in human plasma [8]: stable in human plasma with no DON release
remaining at 1 h, 10 µM ([9]; CES1–/–, mouse, intestinal homogenate): 0%
Intestinal homogenate [9, 13]: 0 ± 0
fold greater delivery of DON to tumor versus GI tissues [10]: 11
chemical stability in buffer [11]: remained intact without any degradation
chemical stability in buffer ([11]; listed as DRP 104): no degradation
aqueous solubility (intrinsic) [12]: < 1000 µg/mL
